Measurements as given in patent US20230348987A1, “METHODS AND COMPOSITIONS FOR TREATING CANCER” (PROMETTRE RESEARCH PTY LTD, priority 2020, published 2023).
Entries after “also recorded” stand apart in the source; their conditions may differ.

Legend:
[1] = test system: HSP105, HSP70, pHER2, total HER2 and EGR4-S expression; assay: Western blot after treatment with cell stress activating compounds (FIG. 4E); assay type: cell-based
Protocol: The MCF10A cell line was obtained from the A.T.C.C. (Manassas, VA, U.S.A.) and cultured as described previously (Debnath et al., 2003). T47D cells, SkBr3 cells, Hs578T and HEK-293T cells were cultured as described by Nguyen et al (2013). MDA-361, ZR75-1, BT-474, MDA-453, MDA-468, MDA-231, BT549 and MCF7 cells were cultured in Dulbecco's Modified Eagle's medium supplemented with 10% (v/v) fetal bovine serum and 1% (w/v) penicillin/streptomycin. In addition, MCF7 growth media was supplemented with 10 ng/ml insulin. All stable cell lines were generated by retroviral or lentiviral transduction as per Debnath et al. (2003). Viral stocks were generated by transient transfection of appropriate viral packaging vectors into the HEK-293T cell line as described by Lang and colleagues (2012). Drugs/compounds used for treating the cells were purchased from commercial sources, including Lapatinib, Erlotinib, Gefinitib and AUY922 from Sigma, and Sulfurophane from Santa Cruz Biotechnology. HSF1-targeted shRNAmir (microRNA-adapted short hairpin RNA) vectors were constructed as described previously (Lang et al., 2012). EGR4-targeted shRNAmir were purchased from Millenium Science.
(§1) Generation of protein lysates from cells was performed according to a previously published protocol (Price et al., 2005). Equal concentrations of protein lysates were combined with loading buffer (Invitrogen) and sample reducing agent (Invitrogen), denatured for 5 minutes at 95° C. then separated through gel electrophoresis in a 4-to-12% Bis-Tris NuPAGE gel (Invitrogen) with 1×MES buffer (Invitrogen) and antioxidant (Invitrogen). Following separation, the proteins were electrophoretically transferred onto nitrocellulose membranes using the iBlot western detection stack/iBlot dry blotting system (Thermofisher) for seven minutes at 23V. All membranes were then processed at room temperature overnight using the […] (Thermofisher) containing primary antibodies, iBind wash solution and horseradish peroxidase-conjugated secondary antibodies. Blots were developed using Clarity Western ECL (Bio-RAD), and images were captured using a Fusion FX imaging machine (Vilber). All antibodies were purchased from commercial sources and included, anti-HSF1 (catalogue number SPA-901), anti-HSP27 (catalogue number SPA-800) and anti-HSP90a (catalogue number SPA-835) antibodies from Enzo Life Sciences; anti-HSP105/110 (catalogue number Sc-6241) antibody from Santa Cruz Biotechnology; anti-Ha-Ras (catalogue number 05-775) antibody from Merck Millipore; anti-actin (catalogue number MS-1295-P0) and anti-HSP70i (catalogue number MS-482-P0) antibodies from Thermo Scientific; anti-p53 (catalogue number 51-9002046) from BD Pharmingen; anti-pHER2/ErbB2 (catalogue number Ab53290), anti-pAkt (catalogue number MISCGENLAB), anti-pEGFR catalogue number SCZSC-12351), anti-total EGFR catalogue number SCZSC-120) from Abcam, anti-total Akt (catalogue number 9272) and anti-HER2/ErbB2 (catalogue number Ab134182) from Cell Signalling, anti-EGR4 (catalogue number AV38090) (Sigma), anti-EGR4 (catalogue number PA5-50496) (Thermofisher), and anti-EGR4 (catalogue number SC133540) (Santa Cruz).

[2] = test system: HER signalling pathway (pHER2, pAKT, EGR4-S) in HER2+ breast cancer cells; details: for EGR4-S expression: increasing drug concentrations, FIG. 3
Protocol: Generation of protein lysates from cells was performed according to a previously published protocol (Price et al., 2005). Equal concentrations of protein lysates were combined with loading buffer (Invitrogen) and sample reducing agent (Invitrogen), denatured for 5 minutes at 95° C. then separated through gel electrophoresis in a 4-to-12% Bis-Tris NuPAGE gel (Invitrogen) with 1×MES buffer (Invitrogen) and antioxidant (Invitrogen). Following separation, the proteins were electrophoretically transferred onto nitrocellulose membranes using the iBlot western detection stack/iBlot dry blotting system (Thermofisher) for seven minutes at 23V. All membranes were then processed at room temperature overnight using the iBlot Western system (Thermofisher) containing primary antibodies, iBind wash solution and horseradish peroxidase-conjugated secondary antibodies. Blots were developed using Clarity Western ECL (Bio-RAD), and images were captured using a Fusion FX imaging machine (Vilber).
The effect of modulators that target the HER signalling pathway (TKIs such as Lapatinib, Gefitinib and Erlotinib) on EGR4-S expression was examined.

[3] = test system: EGR4-S in HER2+ breast cancer cells (SKBR3); assay: EGR4-S expression in cells cultured in increasing Lapatinib concentrations over 7 weeks (FIG. 12); assay type: cell-based
Protocol: as §1
The cell line was cultured in increasing concentrations of Lapatinib over the course of seven weeks to investigate whether EGR4-S expression would be affected during prolonged treatment with Lapatinib.

EGR4-S in HER2+ cells = assay: Lapatinib treatment of HER2+ cells with elevated or lowered HSF1 (FIG. 15A/B); assay type: cell-based
Protocol: as §1

C[S+]([O-])CCCCN=C=S (stereo not shown) [Sulfurophane, Sulforaphane]
HSP70 expression ([1]; greater treatment concentrations): increased
EGR4-S expression ([1]; higher concentrations): reductions
pHER2 expression ([1]; higher concentrations): reductions
EGR4-S expression ([1]; higher concentrations, listed as Sulforaphane): reducing EGR4-S expression

COc1cc2ncnc(Nc3ccc(F)c(Cl)c3)c2cc1OCCCN1CCOCC1 [Gefitinib]
EGR4-S expression [2]: regulated

CCNC(=O)c1noc(-c2cc(C(C)C)c(O)cc2O)c1-c1ccc(CN2CCOCC2)cc1 [AUY922]
EGR4-S expression ([1]; higher concentrations): decreased; also recorded: reducing EGR4-S expression
HSP105 expression ([1]; higher concentrations): increased
pHER2 expression ([1]; higher concentrations): decreased
total HER2 expression ([1]; higher concentrations): decreased

C#Cc1cccc(Nc2ncnc3cc(OCCOC)c(OCCOC)cc23)c1 [Erlotinib]
EGR4-S expression [2]: regulated

CS(=O)(=O)CCNCc1ccc(-c2ccc3ncnc(Nc4ccc(OCc5cccc(F)c5)c(Cl)c4)c3c2)o1 [Lapatinib]
EGR4-S expression ([3]; SKBR3, week 5, 300 nM Lapatinib, vs control): less EGR4-S compared to the control
EGR4-S expression ([3]; SKBR3, week 7, 600 nM Lapatinib): returning to control levels
EGR4-S expression ([3]; after 3 weeks of treatment, vs untreated control): reduced levels of EGR4-S
EGR4-S expression ([3]; prolonged treatment, vs untreated control cells): unchanged
EGR4-S expression (EGR4-S in HER2+ cells; HER2+ cells, dose-dependent, FIG. 15A): reduced EGR4-S expression in a dose-dependent manner
response of EGR4-S expression (EGR4-S in HER2+ cells; HSF1 levels lowered, equivalent doses, FIG. 15B): did not respond as readily
reduction of EGR4-S expression (EGR4-S in HER2+ cells; with elevated HSF1, FIG. 15A): more pronounced
EGR4-S expression over time ([2]; different types of HER2+ breast cancer cells, FIG. 3B): maintained over time
EGR4-S expression [2]: regulated
